# How the values were obtained:
# podocytes [1] = experiment: Intracellular pH of podocytes by phosphorus NMR; assay type: cell-based, mouse; conditions: after 24 hours of LPS exposure; 7.0 under normal conditions
# Protocol: Another example is using phosphorus NMR spectra for untreated and LPS-treated podocytes. Briefly, podocytes are cultured and treated with LPS. 8×10^7 to 1×10^8 cells are harvested and cultured in phosphate-free medium prior to assay. Phosphorous NMR spectra are acquired and analyzed using an iNMR software package. Intracellular pH (pHi) is calculated from the chemical shift difference (d) between the intracellular inorganic phosphate peak (Pi) and the primary phosphate of nucleoside phosphates (Pa) using equation 1.
# Measurement of intracellular pH by NMR: Eighty to hundred million podocyte cells were harvested and resuspended in 2-2.5 mL of phosphate-free RPMI medium (MP Biomedicals, Solon, Ohio) with 2.0 mM glutamine (Invitrogen) prior to assay. Phosphorous NMR spectra were acquired on a 14 Tesla Bruker Avance NMR spectrometer (Bruker BioSpin, Billerica, Mass.) with a 10 mm broadband observe (BBO) NMR probe. Cell suspensions were placed in 10 mm (OD) glass NMR tubes (Wilmad LabGlass, Buena, N.J.). Samples were maintained at a temperature of 37° C. […] Spectra were analyzed using the iNMR software package (Mestrelab Research, Spain). Intracellular pH (pHi) was calculated from the chemical shift difference (d) between the intracellular inorganic phosphate peak (Pi) and the primary phosphate of nucleoside phosphates (Pa) using Eq. 1: […]
# podocytes [2] = experiment: Glutamine uptake rate in cultured podocytes; assay type: cell-based, mouse; conditions: injury stimulus
# Source text: A podocyte metabolic model was constructed based on available databases as well as mRNA and protein expression data extracted from podocytes. The following podocyte culture models were employed: wildtype (control), LPS and PAN stimulated podocytes (inducible injury models) as well as podocytes with genetic deletion of the alpha3 gene (genetic disease model). All injury cultures increase the uptake of glutamine as well as gluconeogenic aminoacids. In addition, there is increasing ammonia production in diseased podocytes. These changes were predicted by the podocyte metabolic model and confirmed by measuring directly amino acids and ammonia (FIGS. 1A-1D).
# Metabolic Flux Analysis emphasizes glutamine utilization pathways for podocyte function: We utilized cultured normal podocytes (control) (15) and three in vitro models for podocyte damage: i) podocytes with α3 integrin deletion (genetic model) (16); ii) podocytes treated with lipopolysaccharides (LPS, immunological model) (17); and iii) podocytes treated with puromycin aminonucleoside (PAN, toxic model) (18). […] Using the podocyte MFA network, we were able to extract podocyte aminoacid and glucose utilization (FIG. 10b-d) that was also independently measured in direct validation studies (data not shown). All analyzed modeling and experimentation data supported the notion that the aminoacid metabolism of podocytes is changed in disease. […]
# HEK293 = experiment: Glutamine uptake rate in HEK293 cells; assay type: cell-based
# Protocol: (§1) All together, these experiments discovered a uniform metabolic response for podocytes that are injured.
# (§2) Cells, antibodies, and standard techniques: Mouse podocyte cell lines (15) and HEK 293 cells (6) were grown as described previously. NIH 3T3 cells were cultured in Dulbecco's modified Eagle's minimal essential medium (Invitrogen, Carlsbad, Calif.) supplemented with 10% fetal calf serum (Invitrogen) and incubated in a humidified atmosphere of 95% air and 5% CO2 at 37° C. Antibody used for immunostaining are Alexa Fluor 594 phalloidin (Molecular Probes, Eugene, Oreg.). Subcellular fractionation was performed as described previously (6).
# SNAT3 [3] = experiment: RT-PCR expression of SNAT glutamine transporters in cultured podocytes; assay type: cell-based, mouse
# Protocol: In brief, total RNA from cultured mouse podocytes was isolated with RNA isolation kit (Qiagen, Germantown, Md.) and the amount of RNA was measured by spectrophotometry. Purified RNA was reverse transcribed and PCR performed using PCR Mastercycler (Eppendorf, Westbury, N.Y.).
# (§3) RT-PCR: We isolated total RNA from murine cultured podocytes and mouse glomeruli using the Trizol reagent (Invitrogen) according to the manufacturer's instructions. cDNA synthesis was performed with SuperScript II Reverse Transcriptase (Invitrogen) using Oligo(dT)12-18 oligonucleotide primers according to the manufacturer's instructions. All samples were run in duplicates.
# NIH 3T3 = experiment: Glutamine uptake rate in NIH 3T3 cells; assay type: cell-based
# Protocol: as §1, §2
# cathepsin L = experiment: Cathepsin L activity in cultured podocytes, CV-(FR)2 substrate; assay type: cell-based, mouse; conditions: effect of the injury stimulus itself
# Protocol: Subcellular sites of cathepsin L and cathepsin B activity in glomerular extracts were visualized by a fluorogenic substrate, CV-(FR)2, which emits light upon cleavage by cathepsin L or cathepsin B (Biomol).
# Measurement of cathepsin L activity: Cathepsin L activities in cultured podocytes and in glomeruli was measured using CV-CatL detection kit (Biomol, Plymouth Meeting, Pa.) as described in the manufacturer's instructions. The fluorophore cresyl violet [CV-(FR)2] substrate becomes florescent after Cat L cleavage of the attached Phe-Arg groups. This substrate easily penetrates the cell membrane and the membranes of the internal cellular organelles, enabling the detection of cathepsin activity within living podocytes.
# SNAT3 [4] = experiment: RT-PCR expression of SNAT glutamine transporters in mouse glomeruli; assay type: in vivo; conditions: glomeruli of mice stimulated with LPS
# Source text: Podocytes induce expression of SNAT glutamine transporters during injury: Having identified increased glutamine uptake and utilization as a signature for diseased podocytes that varies from other non-differentiated eukaryotic cells (FIG. 7), we studied the expression of the expression of system A (SNAT1, 2, 4) and system N(SNAT3, 5, 6) family members of sodium-coupled neutral amino acid transporters in cultured podocytes (FIG. 2a). Glutamine is known to be a favored substrate throughout the family, except for SNAT4 (21). We also studied these transporters in isolated mouse glomeruli (FIG. 2a). All SNATs were expressed besides SNAT5, 3 and 4 were only found at low levels. […] SNAT3, formerly known as SN1 (Slc38a3), is known as an antiporter that function in the presence of Na+ and takes up glutamine for the exchange of H+. It is highly expressed on the mRNA and protein level in the kidney during metabolic acidosis and involved in the regulation of acid-base homeostasis (22-24).
# as §3
substance,measurement,setting,value
lipopolysaccharides [LPS],podocyte cytosolic pH (NMR),podocytes [1],6.9
same,glutamine uptake rate,podocytes [2],stimulated
same,glutamine uptake rate,HEK293,did not respond
same,SNAT3 mRNA expression,SNAT3 [3],prominent induction
same,glutamine uptake rate,NIH 3T3,did not respond
same,cathepsin L activity in podocytes,cathepsin L,stimulate
same,SNAT3 mRNA expression,SNAT3 [4],increased markedly

# Reference: patent publication US9205135B2, “Podocyte pH modulation and uses thereof” (University of Miami, priority 2009, dated 2015)
